{"source": "paper PMC3664202", "about": "(Bioorganic & medicinal chemistry letters, 2012)", "key": {"[1]": {"system": "psoriasis and other inflammatory skin conditions", "settings": "small clinical trial; cited from earlier work"}, "Kv1.3 channels": {"molecular_target": "Kv1.3 channels (Mus musculus, UniProt P16390)", "sequence (P16390 whole entry)": "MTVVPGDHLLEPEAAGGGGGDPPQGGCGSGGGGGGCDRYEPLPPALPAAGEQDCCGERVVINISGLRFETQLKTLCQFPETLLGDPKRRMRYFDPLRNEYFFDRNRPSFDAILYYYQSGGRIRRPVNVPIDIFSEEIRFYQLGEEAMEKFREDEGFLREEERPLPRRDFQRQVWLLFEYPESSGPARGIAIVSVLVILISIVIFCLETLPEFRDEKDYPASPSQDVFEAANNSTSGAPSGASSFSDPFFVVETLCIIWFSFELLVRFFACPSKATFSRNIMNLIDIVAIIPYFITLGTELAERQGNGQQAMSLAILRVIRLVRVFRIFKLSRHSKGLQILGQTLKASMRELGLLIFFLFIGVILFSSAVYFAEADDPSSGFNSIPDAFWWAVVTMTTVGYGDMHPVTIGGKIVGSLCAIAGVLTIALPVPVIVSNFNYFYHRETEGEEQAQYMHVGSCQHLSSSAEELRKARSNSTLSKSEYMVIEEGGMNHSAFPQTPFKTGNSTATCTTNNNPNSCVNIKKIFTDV", "assay": "Kv1.3 blockade, manual whole-cell patch-clamp", "format": "cell-based", "settings": "for decrease in Kv1.3 blocking activity/potency relative to diphenoxylate: fold less potent than diphenoxylate"}, "[2]": {"settings": "cited from earlier work"}, "[3]": {"system": "delayed type hypersensitivity (DTH) and allergic contact dermatitis (ACD)", "settings": "Lewis rats; dosed orally, by i.p. injection or topically; cited from earlier work"}, "[4]": {"system": "adoptive transfer and chronic relapsing experimental autoimmune encephalomyelitis (EAE)", "settings": "rats; cited from earlier work"}}, "data": [{"compound": "CCOC(=O)C1(c2ccccc2)CCN(CCC(C#N)(c2ccccc2)c2ccccc2)CC1", "note": "[Compound 1, Diphenoxylate]", "values": [{"measurement": "clinical effect on psoriasis and other inflammatory skin conditions", "setting": "[1]", "result": "successfully treat psoriasis and other inflammatory skin conditions"}]}, {"compound": "CCOC(=O)C1CCN(CCC(C#N)(c2ccccc2)c2ccccc2)CC1", "note": "[Compound 6, Ethyl 1-(3-cyano-3,3-diphenylpropyl)piperidine-4-carboxylate]", "values": [{"measurement": "decrease in Kv1.3 blocking activity/potency relative to diphenoxylate", "setting": "Kv1.3 channels", "result": "~ 50 fold"}]}, {"compound": "CCOC(=O)C1(c2ccccc2)CCN(CCC(c2ccccc2)c2ccccc2)CC1", "note": "[Compound 7, Ethyl 1-(3,3-diphenylpropyl)-4-phenylpiperidine-4-carboxylate]", "values": [{"measurement": "more active than diphenoxylate (Kv1.3 blockade)", "setting": "Kv1.3 channels; fold more active than diphenoxylate", "result": 6, "unit": "fold"}]}, {"compound": "N#CC(CCN1CCCCC1)(c1ccccc1)c1ccccc1", "note": "[Compound 8, 2,2-diphenyl-4-(piperidin-1-yl)butanenitrile]", "values": [{"measurement": "decrease in Kv1.3 blocking activity/potency relative to diphenoxylate", "setting": "Kv1.3 channels", "result": 4, "unit": "fold"}]}, {"compound": "N#CC(CCN1CCCC(O)C1)(c1ccccc1)c1ccccc1", "note": "(stereo not shown) [Compound 15, 4-(3-hydroxypiperidin-1-yl)-2,2-diphenylbutanenitrile]", "values": [{"measurement": "IC50", "setting": "Kv1.3 channels", "result": "> 100", "unit": "µM"}]}, {"compound": "OC1CCN(CCCc2ccccc2)CC1", "note": "[Compound 17, 1-(3-phenylpropyl)piperidin-4-ol]", "values": [{"measurement": "IC50", "setting": "Kv1.3 channels", "result": "> 100", "unit": "µM"}, {"measurement": "Kv1.3 blocking activity (in words)", "setting": "Kv1.3 channels; removal of a cyano group plus a phenyl ring from 14", "result": "no activity"}]}, {"compound": "O=c1ccc2c(OCCCCOc3ccccc3)c3ccoc3cc2o1", "note": "[PAP-1]", "values": [{"measurement": "oral availability", "setting": "[2]", "result": 25, "unit": "%"}, {"measurement": "effect on DTH and ACD", "setting": "[3]", "result": "suppress delayed type hypersensitivity (DTH) and allergic contact dermatitis (ACD)"}]}, {"compound": "ShK", "values": [{"measurement": "effect on EAE", "setting": "[4]", "result": "able to treat both adoptive transfer and chronic relapsing experimental autoimmune encephalomyelitis (EAE)"}]}]}
